The source of these data is patent US12679812B2, “18F-labeled triazole containing PSMA inhibitors” (Cornell University, priority 2016, dated 2026).

SMILES strings stand for the structures. Marks after values point to notes of the source that are not given here.

For data set [1], the system named is LNCaP xenograft tumor. As to the kind of experiment: microPET/CT imaging of LNCaP xenograft tumor-bearing mice. The format is in vivo. The procedure: Inoculation of mice with xenografts. All animal studies were approved by the Institutional Animal Care and Use Committee of Weill Cornell Medicine and were undertaken in accordance with the guidelines set forth by the USPHS Policy on Humane Care and Use of Laboratory Animals. Animals were housed under standard conditions in approved facilities with 12 h light/dark cycles. Food and water was provided ad libitum throughout the course of the studies. Male inbred athymic nu/nu mice were purchased from The Jackson Laboratory. For inoculation in mice, LNCaP cells were suspended at 4×10^7 cells/mL in a 1:1 mixture of PBS:Matrigel (BD Biosciences). Each mouse was injected in the left flank with 0.25 mL of the cell suspension. The mice were imaged when the tumors reached approximately 200-400 mm^3, while biodistributions were conducted when tumors were in the range 100-400 mm^3.
Imaging. […] Specific activity was greater than […]. The mice were imaged by pPET/CT (Inveon™; Siemens Medical Solutions, Inc.) at 1 h, 2 h, 4 h, and 6 h post-injection ([^18F]fluorinated compounds) or 1 h and 3 h post-injection ([^68Ga]Ga-PSMA-HBED-CC). Total acquisition time was thirty minutes, and a CT scan was obtained either immediately before or immediately after the acquisition for both anatomical co-registration and attenuation correction. The data were reconstructed using the commercial Inveon™ software supplied by the vendor. Tumor uptake was estimated by drawing a region of interest (ROI).

Data set [2] concerns LNCaP tumor xenografts. The settings on record: 1 h post injection, reported; cited from earlier work.

`O=C(O)CCC(NC(=O)NC(CCCCNC(=O)c1ccc(F)nc1)C(=O)O)C(=O)O` (stereo not shown) [DCFPyL, 2-(3-{1-Carboxy-5-[(6-fluoropyridine-3-carbonyl)-amino]-pentyl}-ureido)-pentanedioic acid, reference compound]: in data set [1] (image derived calculation of tumor uptake (microPET/CT), at time of maximum uptake), the “Max. LNCaP Tumor Uptake” value was 5.71 ± 0.61^c % ID/g. Further, the “Time p.i. of max. LNCaP tumor uptake” value in data set [1] (microPET/CT imaging at 1, 2, 4, 6 h) is recorded as 1 h. Further, in data set [1] (microPET/CT imaging up to 6 h post injection), the Tumor washout entry was “rapid tumor washout”. Also, in data set [2], the SUVmax was 1.1±0.1.
